The values below come from ChEMBL document CHEMBL1124019, “Synthesis and anticholinesterase activity of (-)-N1-norphysostigmine, (-)-eseramine, and other N(1)-substituted analogues of (-)-physostigmine” (J Med Chem, 1988).

Molecules are shown by their SMILES. pIC50: −log10 of the molar value.

The test addresses Acetylcholinesterase (Electrophorus electricus, UniProt O42275).

Chain of Acetylcholinesterase (O42275 whole entry): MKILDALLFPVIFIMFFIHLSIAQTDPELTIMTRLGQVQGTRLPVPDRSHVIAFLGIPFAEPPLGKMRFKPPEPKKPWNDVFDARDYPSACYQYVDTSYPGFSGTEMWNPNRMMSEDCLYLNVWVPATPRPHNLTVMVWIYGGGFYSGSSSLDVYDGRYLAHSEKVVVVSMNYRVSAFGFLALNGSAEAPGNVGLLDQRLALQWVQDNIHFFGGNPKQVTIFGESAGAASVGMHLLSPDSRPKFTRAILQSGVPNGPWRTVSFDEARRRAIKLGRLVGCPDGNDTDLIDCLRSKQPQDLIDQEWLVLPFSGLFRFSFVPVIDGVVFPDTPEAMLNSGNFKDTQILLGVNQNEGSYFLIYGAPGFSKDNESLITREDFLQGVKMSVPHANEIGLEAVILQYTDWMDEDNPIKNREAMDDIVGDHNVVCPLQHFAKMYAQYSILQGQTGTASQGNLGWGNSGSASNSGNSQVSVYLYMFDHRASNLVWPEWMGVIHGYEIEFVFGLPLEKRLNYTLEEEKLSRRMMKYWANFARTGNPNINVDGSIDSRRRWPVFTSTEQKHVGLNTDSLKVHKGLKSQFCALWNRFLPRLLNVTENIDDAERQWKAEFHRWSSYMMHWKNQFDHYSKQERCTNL
Description: In vitro inhibitory activity against acetylcholinesterase from electric eel

The molecule `CNC(=O)Oc1ccc2c(c1)[C@]1(C)CCN(C(=O)NC)C1N2C` (some centres not stated) gave a pIC50 of 5.03.
`CN(C)C(=O)Oc1cccc([N+](C)(C)C)c1` [NEOSTIGMINE BROMIDE]: the pIC50 was 7.06.

One may read the pIC50 as the negative decadic logarithm of the IC50, by convention in mol/L.
